{"source": "patent US11097023B1", "about": "“Pre-filled syringe containing sugammadex” (Par Pharmaceutical, Inc., priority 2020, dated 2021)", "key": {"[1]": {"assay": "Thermal-forced degradation of sugammadex sodium (Example V)", "assay_type": "physicochemical", "conditions": "solution in WFI, 60° C.", "procedure": "To confirm that the impurities observed in Example III were at least in part a result of thermal degradation, sugammadex sodium as a solution in WFI was subjected to an elevated temperature of 60° C. for ten days. S-oxide diastereomer-1 impurity, s-oxide diastereomer-2 impurity, impurity at ˜1.12 RRT, mono chloro impurity, unknown impurities, and mono hydroxyl impurity concentrations were measured using HPLC technique as described in Example VII after the first, third, fifth, and tenth day.\n(§1) For the following procedure, amber-colored glassware was used for all preparations. In addition, because sugammadex sodium is markedly hygroscopic when exposed to air at room temperature and when exposed to humidity, a relative humidity of less than 40% RH was maintained during weighing.\n(§2) First, a buffer solution having a pH of 2.0 was prepared by weighing and transferring about 4.08 g of potassium dihydrogen phosphate (AR grade of equivalent) into 1000 mL water (HPLC Grade or Milli-Q) and mixing. The pH of the buffer solution was adjusted to 2.0±0.05 with concentrated ortho-phosphoric acid (HPLC grade or equivalent) and mixed well.\n(§3) A mobile phase A was then prepared by transferring 950 mL of the buffer solution and 50 mL of methanol (HPLC grade or equivalent) into a bottle, mixing, and sonicating to degas. A mobile phase B was also prepared by transferring 300 mL of the buffer solution and 700 mL of acetonitrile (HPLC grade or equivalent) into a bottle, mixing, and sonicating to degas.\n(§4) A standard solution (50 ppm) was also prepared by weighing and transferring 27.2 mg of sugammadex sodium standard into a 50 mL amber color volumetric flask. About 30 mL of 100% water (HPLC Grade or Milli-Q) was added, and the mixture was sonicated to dissolve. The solution was made up to the mark with 100% water (HPLC Grade or Milli-Q) and mixed well. Then, 5.0 mL of this solution was transferred to 50 mL amber color volumetric flasks, made up to the mark with 100% water (HPLC Grade or Milli-Q), and mixed well.\n(§5) To prepare a sensitivity solution (5 ppm), 5.0 mL of the standard solution was transferred to a 50 mL amber volumetric flask, made-up to the mark with 100% water (HPLC Grade or Milli-Q), and mixed well.\n(§6) A placebo solution was also prepared by weighing and transferring 1.0 g of placebo into a 20 mL amber color volumetric flask, diluting to 20 mL with 100% water (HPLC Grade or Milli-Q), and mixing well.\n(§7) A sample solution (5000 ppm) was also prepared by weighing and transferring 1.0 g of the sample to be analyzed into a 20 mL amber color volumetric flask, diluting to 20 mL with 100% water (HPLC Grade or Milli-Q), and mixing well.\n(§8) When performing the chromatographic procedure, for initial samples, two samples were prepared in duplicate. For stability samples, a single sample was prepared. In addition, any peak due to blank and/or placebo was disregarded, any peak below LOQ level was disregarded, and any peak corresponding to mono chloro impurity was disregarded.\n(§9) The percent impurity was then calculated as follows:\n(§10) [formula] where: A(Spl)=Peak response of impurity obtained from sample solution A(Std)=Average peak response of sugammadex from the standard solution Wt(Std)=Weight (mg) of sugammadex working standard. Wt(Spl)=Weight (g) of Sample LC=Label Claim (100 mg/ml sugammadex) D=Density of sample (mg/ml) P=Potency of the standard (Anhydrous basis+Solvent free) WC=Water content of sugammadex working standard. 2002.12=Molecular weight of sugammadex 2178.01=Molecular weight of sugammadex sodium\n(§11) Total impurities were calculated by adding all known impurities (excluding mono hydroxy impurity) and all unknown impurities."}, "[2]": {"assay": "Oxidative-forced degradation of sugammadex sodium (Example VI)", "assay_type": "physicochemical", "procedure": "To confirm that impurities observed in sugammadex sodium-containing solutions could be at least in part a result of oxidative degradation, sugammadex sodium as a solution in […] was subjected to an atmosphere of either 0.01% H2O2 for one hour or to an atmosphere of 0.002% H2O2 for five hours. S-oxide diastereomer-1 impurity, s-oxide diastereomer-2 impurity, impurity at ˜1.12 RRT, mono chloro impurity, unknown impurities, and mono hydroxyl impurity concentrations were measured using HPLC technique as described in Example VII after the first hour of 0.01% H2O2 exposure and after the first, fourth, and fifth hour of 0.002% H2O2 exposure.\nas §1, §2, §3, §4, §5, §6, §7, §8, §9, §10, §11"}}}
{"smiles": "O=C([O-])CCSC[C@H]1O[C@@H]2O[C@H]3[C@H](O)[C@@H](O)[C@@H](O[C@H]4[C@H](O)[C@@H](O)[C@@H](O[C@H]5[C@H](O)[C@@H](O)[C@@H](O[C@H]6[C@H](O)[C@@H](O)[C@@H](O[C@H]7[C@H](O)[C@@H](O)[C@@H](O[C@H]8[C@H](O)[C@@H](O)[C@@H](O[C@H]9[C@H](O)C(O)[C@@H](O[C@H]1[C@H](O)[C@H]2O)O[C@@H]9CSCCC(=O)[O-])O[C@@H]8CSCCC(=O)[O-])O[C@@H]7CSCCC(=O)[O-])O[C@@H]6CSCCC(=O)[O-])O[C@@H]5CSCCC(=O)[O-])O[C@@H]4CSCCC(=O)[O-])O[C@@H]3CSCCC(=O)[O-].[Na+].[Na+].[Na+].[Na+].[Na+].[Na+].[Na+].[Na+]", "note": "(stereo partly drawn) [sugammadex sodium]", "values": [{"measurement": "(Excluding Monohydroxy impurity)", "setting": "[1]; after fifth day", "result": 0.03, "unit": "% impurity"}, {"measurement": "Highest Unknown impurity", "setting": "[1]; after fifth day", "result": 7.18, "unit": "% impurity"}, {"measurement": "Impurity at ~1.12 RRT", "setting": "[1]; after fifth day", "result": 0.10, "unit": "% impurity"}, {"measurement": "Mono chloro impurity", "setting": "[1]; after fifth day", "result": 0.03, "unit": "% impurity"}, {"measurement": "Other total impurities", "setting": "[1]; after fifth day", "result": 0.80, "unit": "% impurity"}, {"measurement": "S-oxide diastereomer-1 impurity", "setting": "[1]; after fifth day", "result": 0.16, "unit": "% impurity"}, {"measurement": "S-oxide diastereomer-2 impurity", "setting": "[1]; after fifth day", "result": 0.21, "unit": "% impurity"}, {"measurement": "Total impurities", "setting": "[1]; after fifth day", "result": 8.48, "unit": "% impurity"}, {"measurement": "(Excluding Monohydroxy impurity)", "setting": "[1]; after first day", "result": 0.03, "unit": "% impurity"}, {"measurement": "Highest Unknown impurity", "setting": "[1]; after first day", "result": 4.44, "unit": "% impurity"}, {"measurement": "Impurity at ~1.12 RRT", "setting": "[1]; after first day", "result": 0.10, "unit": "% impurity"}, {"measurement": "Mono chloro impurity", "setting": "[1]; after first day", "result": 0.04, "unit": "% impurity"}, {"measurement": "Other total impurities", "setting": "[1]; after first day", "result": 0.71, "unit": "% impurity"}, {"measurement": "S-oxide diastereomer-1 impurity", "setting": "[1]; after first day", "result": 0.12, "unit": "% impurity"}, {"measurement": "S-oxide diastereomer-2 impurity", "setting": "[1]; after first day", "result": 0.17, "unit": "% impurity"}, {"measurement": "Total impurities", "setting": "[1]; after first day", "result": 5.58, "unit": "% impurity"}, {"measurement": "(Excluding Monohydroxy impurity)", "setting": "[1]; after tenth day", "result": 0.02, "unit": "% impurity"}, {"measurement": "Highest Unknown impurity", "setting": "[1]; after tenth day", "result": 15.04, "unit": "% impurity"}, {"measurement": "Impurity at ~1.12 RRT", "setting": "[1]; after tenth day", "result": 0.08, "unit": "% impurity"}, {"measurement": "Mono chloro impurity", "setting": "[1]; after tenth day", "result": 0.03, "unit": "% impurity"}, {"measurement": "Other total impurities", "setting": "[1]; after tenth day", "result": 0.85, "unit": "% impurity"}, {"measurement": "S-oxide diastereomer-1 impurity", "setting": "[1]; after tenth day", "result": 0.48, "unit": "% impurity"}, {"measurement": "S-oxide diastereomer-2 impurity", "setting": "[1]; after tenth day", "result": 0.42, "unit": "% impurity"}, {"measurement": "Total impurities", "setting": "[1]; after tenth day", "result": 16.91, "unit": "% impurity"}, {"measurement": "(Excluding Monohydroxy impurity)", "setting": "[1]; after third day", "result": 0.03, "unit": "% impurity"}, {"measurement": "Highest Unknown impurity", "setting": "[1]; after third day", "result": 5.34, "unit": "% impurity"}, {"measurement": "Impurity at ~1.12 RRT", "setting": "[1]; after third day", "result": 0.10, "unit": "% impurity"}, {"measurement": "Mono chloro impurity", "setting": "[1]; after third day", "result": 0.03, "unit": "% impurity"}, {"measurement": "Other total impurities", "setting": "[1]; after third day", "result": 0.79, "unit": "% impurity"}, {"measurement": "S-oxide diastereomer-1 impurity", "setting": "[1]; after third day", "result": 0.14, "unit": "% impurity"}, {"measurement": "S-oxide diastereomer-2 impurity", "setting": "[1]; after third day", "result": 0.20, "unit": "% impurity"}, {"measurement": "Total impurities", "setting": "[1]; after third day", "result": 6.59, "unit": "% impurity"}, {"measurement": "Impurities generated via thermal degradation", "setting": "[1]; ten days", "result": "at least s-oxide diastereomer-1 impurity, s-oxide diastereomer-2 impurity, and unknown impurities are generated via thermal degradation"}, {"measurement": "(Excluding Monohydroxy impurity)", "setting": "[2]; 0.002% H2O2, after fifth hour", "result": 0.03, "unit": "% impurity"}, {"measurement": "Highest Unknown impurity", "setting": "[2]; 0.002% H2O2, after fifth hour", "result": 0.07, "unit": "% impurity"}, {"measurement": "Impurity at ~1.12 RRT", "setting": "[2]; 0.002% H2O2, after fifth hour", "result": 0.09, "unit": "% impurity"}, {"measurement": "Mono chloro impurity", "setting": "[2]; 0.002% H2O2, after fifth hour", "result": 0.03, "unit": "% impurity"}, {"measurement": "Other total impurities", "setting": "[2]; 0.002% H2O2, after fifth hour", "result": 0.82, "unit": "% impurity"}, {"measurement": "S-oxide diastereomer-1 impurity", "setting": "[2]; 0.002% H2O2, after fifth hour", "result": 4.11, "unit": "% impurity"}, {"measurement": "S-oxide diastereomer-2 impurity", "setting": "[2]; 0.002% H2O2, after fifth hour", "result": 5.02, "unit": "% impurity"}, {"measurement": "Total impurities", "setting": "[2]; 0.002% H2O2, after fifth hour", "result": 10.14, "unit": "% impurity"}, {"measurement": "(Excluding Monohydroxy impurity)", "setting": "[2]; 0.002% H2O2, after first hour", "result": 0.03, "unit": "% impurity"}, {"measurement": "Highest Unknown impurity", "setting": "[2]; 0.002% H2O2, after first hour", "result": 0.07, "unit": "% impurity"}, {"measurement": "Impurity at ~1.12 RRT", "setting": "[2]; 0.002% H2O2, after first hour", "result": 0.10, "unit": "% impurity"}, {"measurement": "Mono chloro impurity", "setting": "[2]; 0.002% H2O2, after first hour", "result": 0.04, "unit": "% impurity"}, {"measurement": "Other total impurities", "setting": "[2]; 0.002% H2O2, after first hour", "result": 0.31, "unit": "% impurity"}, {"measurement": "S-oxide diastereomer-1 impurity", "setting": "[2]; 0.002% H2O2, after first hour", "result": 1.20, "unit": "% impurity"}, {"measurement": "S-oxide diastereomer-2 impurity", "setting": "[2]; 0.002% H2O2, after first hour", "result": 1.47, "unit": "% impurity"}, {"measurement": "Total impurities", "setting": "[2]; 0.002% H2O2, after first hour", "result": 3.20, "unit": "% impurity"}, {"measurement": "(Excluding Monohydroxy impurity)", "setting": "[2]; 0.002% H2O2, after fourth hour", "result": 0.02, "unit": "% impurity"}, {"measurement": "Highest Unknown impurity", "setting": "[2]; 0.002% H2O2, after fourth hour", "result": 0.07, "unit": "% impurity"}, {"measurement": "Impurity at ~1.12 RRT", "setting": "[2]; 0.002% H2O2, after fourth hour", "result": 0.09, "unit": "% impurity"}, {"measurement": "Mono chloro impurity", "setting": "[2]; 0.002% H2O2, after fourth hour", "result": 0.03, "unit": "% impurity"}, {"measurement": "Other total impurities", "setting": "[2]; 0.002% H2O2, after fourth hour", "result": 0.65, "unit": "% impurity"}, {"measurement": "S-oxide diastereomer-1 impurity", "setting": "[2]; 0.002% H2O2, after fourth hour", "result": 3.42, "unit": "% impurity"}, {"measurement": "S-oxide diastereomer-2 impurity", "setting": "[2]; 0.002% H2O2, after fourth hour", "result": 4.18, "unit": "% impurity"}, {"measurement": "Total impurities", "setting": "[2]; 0.002% H2O2, after fourth hour", "result": 8.45, "unit": "% impurity"}, {"measurement": "(Excluding Monohydroxy impurity)", "setting": "[2]; 0.01% H2O2, after first hour", "result": 0.02, "unit": "% impurity"}, {"measurement": "Highest Unknown impurity", "setting": "[2]; 0.01% H2O2, after first hour", "result": 3.07, "unit": "% impurity"}, {"measurement": "Impurity at ~1.12 RRT", "setting": "[2]; 0.01% H2O2, after first hour", "result": 0.08, "unit": "% impurity"}, {"measurement": "Mono chloro impurity", "setting": "[2]; 0.01% H2O2, after first hour", "result": 0.03, "unit": "% impurity"}, {"measurement": "Other total impurities", "setting": "[2]; 0.01% H2O2, after first hour", "result": 3.66, "unit": "% impurity"}, {"measurement": "S-oxide diastereomer-1 impurity", "setting": "[2]; 0.01% H2O2, after first hour", "result": 10.64, "unit": "% impurity"}, {"measurement": "S-oxide diastereomer-2 impurity", "setting": "[2]; 0.01% H2O2, after first hour", "result": 12.89, "unit": "% impurity"}, {"measurement": "Total impurities", "setting": "[2]; 0.01% H2O2, after first hour", "result": 30.36, "unit": "% impurity"}, {"measurement": "Impurities generated via oxidation", "setting": "[2]; 0.01% H2O2 one hour or 0.002% H2O2 five hours", "result": "at least s-oxide diastereomer-1 impurity, s-oxide diastereomer-2 impurity, and unknown impurities are generated via oxidation"}]}
